Experimental findings from patent US8937091B2 (Japan Science and Technology Agency, priority 2009, dated 2015) are described below.

Experiment [1] concerns IICR (IP3 induced calcium release) in CHO cells. Put plainly: Assay of IICR (IP3 induced calcium release)-inhibiting action. The class given is cell-based, Chinese hamster. The conditions noted are these: CHO cells, 10 μM ATP; for inhibition at 10 µM / inhibition at 30 µM / inhibition at 100 µM: Cricetulus griseus, CHO, read-out: IICR level (percentage of inhibition). In a few lines: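 CHO cell medium replaced with calcium-containing BSS; compound added 1 min later, then 10 μM ATP after a further 2 min. Percent inhibition of the ATP-evoked rise in intracellular calcium determined at each compound concentration.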

Experiment [2] concerns SOCE (store operated calcium entry) in CHO cells. Put plainly: Assay of SOCE (store operated calcium entry)-inhibiting action. The format is cell-based, Chinese hamster. The conditions noted are these: CHO cells, thapsigargin; for inhibition at 10 µM / inhibition at 30 µM / inhibition at 100 µM: Cricetulus griseus, CHO, read-out: SOCE level (percentage of inhibition). Summed up: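 CHO cells in calcium-free BSS received compound, then 1 μM thapsigargin 2 min later to deplete stores; after 9 min, 2 mM calcium chloride (final) added. Percent inhibition of the rise in intracellular calcium determined at various compound concentrations.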

SMILES strings stand for the structures.

As for `O=C(CCNCCc1ccccc1)c1ccsc1` [Example 223, 2-(N-phenethyl)aminoethyl-3-thiophenylketone], the inhibition at 10 µM in experiment [1] (test compound 10 μmol) and in experiment [2] (test compound 10 μmol) was 0% each time. Besides, the inhibition at 30 µM in experiment [1] (test compound 30 μmol) came to 0%; in experiment [2] (test compound 30 μmol) it was 10%. Further, the results for the inhibition at 100 µM in experiment [1] (test compound 100 μmol) and in experiment [2] (test compound 100 μmol) were 0% and 20%, respectively.
As for `O=C(CCN(CCO)CCO)c1ccc(Br)s1` [Example 330, 2-(N-bishydroxyethyl)aminoethyl-5-bromo-2-thienylketone], the inhibition at 10 µM in experiment [1] (test compound 10 μmol) was 30%; in experiment [2] (test compound 10 μmol), 10%. In addition, the inhibition at 30 µM in experiment [1] (test compound 30 μmol) came out at 40%; in experiment [2] (test compound 30 μmol), 10%. Further, the results for the inhibition at 100 µM in experiment [1] (test compound 100 μmol) and in experiment [2] (test compound 100 μmol) were 50% and 20%, respectively.
As to `CC(C)N(CCO)CCC(=O)c1cccnc1` [Example 158, 2-(N-isopropylhydroxyethyl)aminoethyl-3′-pyridylketone], the inhibition at 10 µM in experiment [1] (test compound 10 μmol) came out at 30%; in experiment [2] (test compound 10 μmol), 0%. The inhibition at 30 µM in experiment [1] (test compound 30 μmol) was 20%; in experiment [2] (test compound 30 μmol) it was 0%. The inhibition at 100 µM in experiment [1] (test compound 100 μmol) was 20%; in experiment [2] (test compound 100 μmol), 0%.
Regarding `CN(CCO)CCC(=O)c1cccs1` [Example 126, 2-(N-methylhydroxyethyl)aminoethyl-2-thiophenylketone], the inhibition at 10 µM in experiment [1] (test compound 10 μmol) worked out at 20%; in experiment [2] (test compound 10 μmol), 0%. The inhibition at 30 µM is 20% in experiment [1] (test compound 30 μmol) and 0% in experiment [2] (test compound 30 μmol). The inhibition at 100 µM was found to be 70% in experiment [1] (test compound 100 μmol) and 0% in experiment [2] (test compound 100 μmol).
With `CC(C)N(CCO)CCCC(=O)c1ccccc1` [Example 207, 3-(N-hydroxyethylisopropyl)aminopropylphenylketone], the “IICR level (percentage of inhibition)” value in experiment [1] (test compound 10 μmol), in experiment [1] (test compound 30 μmol) and in experiment [1] (test compound 100 μmol) was 20% in each case. Further, the “SOCE level (percentage of inhibition)” value in experiment [2] (test compound 10 μmol) stood at 0%; in experiment [2] (test compound 30 μmol), 0%; in experiment [2] (test compound 100 μmol), 30%.
On to `O=C(CCN(CCO)c1ccccc1)c1ccc(-c2ccccc2)cc1` [Example 299, 2-(N-2-hydroxyethylphenyl)aminoethyl-4-biphenylketone], for which the inhibition at 10 µM in experiment [1] (test compound 10 μmol) worked out at 70%; in experiment [2] (test compound 10 μmol) it was 20%. Further, the figures for the inhibition at 30 µM in experiment [1] (test compound 30 μmol) and in experiment [2] (test compound 30 μmol) were 30% and 40%, respectively. Besides, the inhibition at 100 µM was found to be 30% in experiment [1] (test compound 100 μmol) and 40% in experiment [2] (test compound 100 μmol).
As for `CC(C)N(CCO)CCC(=O)c1cccs1` [Example 194, 2-(N-isopropylhydroxyethyl)aminoethyl-2-thiophenylketone], the inhibition at 10 µM in experiment [1] (test compound 10 μmol) and in experiment [2] (test compound 10 μmol) was 0% in each case. Moreover, the inhibition at 30 µM in experiment [1] (test compound 30 μmol) and in experiment [2] (test compound 30 μmol) was 0% each time. Further, the inhibition at 100 µM in experiment [1] (test compound 100 μmol) stood at 0%; in experiment [2] (test compound 100 μmol) it was 10%.
As for `Cc1ccc(C(=O)CCNC23CC4CC(CC(C4)C2)C3)o1` [Example 190, 2-N-adamantane-aminoethyl-2-methylfurylketone], the inhibition at 10 µM in experiment [1] (test compound 10 μmol) and in experiment [2] (test compound 10 μmol) was 0% throughout. For the same compound, the inhibition at 30 µM in experiment [1] (test compound 30 μmol) and in experiment [2] (test compound 30 μmol) was 10% throughout. Also, the inhibition at 100 µM in experiment [1] (test compound 100 μmol) and in experiment [2] (test compound 100 μmol) was 50% throughout.
As for `CCCCCCN(CCCCCC)CCC(=O)c1ccc(Cl)s1` [Example 385, 2-(N,N-dihexyl)aminoethyl-5-chloro-2-thienylketone], the inhibition at 10 µM in experiment [1] (test compound 10 μmol) and in experiment [2] (test compound 10 μmol) was 0% throughout. Further, the figures for the inhibition at 30 µM in experiment [1] (test compound 30 μmol) and in experiment [2] (test compound 30 μmol) were 14% and 95%, respectively. Also, the inhibition at 100 µM in experiment [1] (test compound 100 μmol) stood at 0%; in experiment [2] (test compound 100 μmol), 53%.
As for `CC(C)N(CCC(=O)c1ccco1)Cc1ccccc1` [Example 109, 2-(N-isopropylbenzyl)aminoethyl-2-furylketone], the inhibition at 10 µM is 20% in experiment [1] (test compound 10 μmol) and 0% in experiment [2] (test compound 10 μmol). Besides, the inhibition at 30 µM in experiment [1] (test compound 30 μmol) is 90%; in experiment [2] (test compound 30 μmol), 0%. Moreover, the inhibition at 100 µM amounted to 70% in experiment [1] (test compound 100 μmol) and 10% in experiment [2] (test compound 100 μmol).
Turning to `NCCCCNCCC(=O)c1ccc2ccccc2c1` [Example 118, 2-(N-aminobutyl)aminoethyl-2-naphthylketone], the inhibition at 10 µM in experiment [1] (test compound 10 μmol) and in experiment [2] (test compound 10 μmol) was 0% each time. Further, the inhibition at 30 µM in experiment [1] (test compound 30 μmol) and in experiment [2] (test compound 30 μmol) was 0% each time. Also, the inhibition at 100 µM in experiment [1] (test compound 100 μmol) and in experiment [2] (test compound 100 μmol) was 0% throughout.
In the case of `CC(C)(C)N(CCO)CCC(=O)c1nccs1` [Example 122, 2-(N-t-butylhydroxyethyl)aminoethyl-2-thiazolylketone], the inhibition at 10 µM in experiment [1] (test compound 10 μmol) and in experiment [2] (test compound 10 μmol) was 0% each time. Moreover, the inhibition at 30 µM in experiment [1] (test compound 30 μmol) and in experiment [2] (test compound 30 μmol) was 0% in each case. Moreover, the inhibition at 100 µM in experiment [1] (test compound 100 μmol) and in experiment [2] (test compound 100 μmol) was 0% in each case.
As for `CN(CCC(=O)c1ccsc1)Cc1ccccc1` [Example 236, 2-(N-benzylmethyl)aminoethyl-3-thiophenylketone], the inhibition at 10 µM stood at 10% in experiment [1] (test compound 10 μmol) and 0% in experiment [2] (test compound 10 μmol). Further, the figures for the inhibition at 30 µM in experiment [1] (test compound 30 μmol) and in experiment [2] (test compound 30 μmol) were 10% and 0%, respectively. The inhibition at 100 µM came to 80% in experiment [1] (test compound 100 μmol) and 20% in experiment [2] (test compound 100 μmol).
For the compound `CC(C)(C)N(CCO)CCC(=O)c1cccs1` [Example 246, 2-(N-t-butyl-2-hydroxyethyl)aminoethyl-2-thiophenylketone], the inhibition at 10 µM came out at 10% in experiment [1] (test compound 10 μmol) and 0% in experiment [2] (test compound 10 μmol). Moreover, the inhibition at 30 µM in experiment [1] (test compound 30 μmol) and in experiment [2] (test compound 30 μmol) was 0% throughout. Also, the inhibition at 100 µM in experiment [1] (test compound 100 μmol) and in experiment [2] (test compound 100 μmol) was 0% in each case.
Regarding `CC(CN(CCO)C(C)(C)C)C(=O)c1ccc(F)cc1` (stereo not drawn) [Example 161, 2-(N-hydroxyethyl-t-butyl)amino-1-methylethyl-4-fluorophenylketone], the inhibition at 10 µM in experiment [1] (test compound 10 μmol) and in experiment [2] (test compound 10 μmol) was 0% each time. The inhibition at 30 µM in experiment [1] (test compound 30 μmol) and in experiment [2] (test compound 30 μmol) was 0% throughout. Also, the inhibition at 100 µM in experiment [1] (test compound 100 μmol) and in experiment [2] (test compound 100 μmol) was 20% throughout.
On to `CN(CCO)CCC(=O)c1cnccn1` [Example 208, 2-(N-hydroxyethylmethyl)aminoethyl-2-pyrazylketone], for which the inhibition at 10 µM in experiment [1] (test compound 10 μmol) worked out at 20%; in experiment [2] (test compound 10 μmol) it was 0%. Besides, the inhibition at 30 µM in experiment [1] (test compound 30 μmol) was found to be 30%; in experiment [2] (test compound 30 μmol) it was 10%. The inhibition at 100 µM in experiment [1] (test compound 100 μmol) stood at 30%; in experiment [2] (test compound 100 μmol), 20%.
For the compound `CCCCN(CCC(=O)c1ccc(Br)s1)Cc1ccccc1` [Example 373, 2-(N-butyl-N-benzyl)aminoethyl-5-bromo-2-thienylketone], the figures for the inhibition at 10 µM in experiment [1] (test compound 10 μmol) and in experiment [2] (test compound 10 μmol) were 0% and 100%, respectively. Also, the inhibition at 30 µM in experiment [1] (test compound 30 μmol) came out at 36%; in experiment [2] (test compound 30 μmol) it was 28%. Also, the inhibition at 100 µM in experiment [1] (test compound 100 μmol) was found to be 0%; in experiment [2] (test compound 100 μmol) it was 65%.
